Measurements reported in patent publication US5688787A, “Substituted β-lactam compounds useful as hypochlesterolemic agents and processes for the preparation thereof” (priority 1996, dated 1997).
Read-outs that look alike come from different tables or passages of the source.

Legend:
ACAT = target: T1, ACAT (Rattus norvegicus, UniProt Q7TQM4); assay: ACAT Assay (in vitro); format: biochemical; conditions: for inhibition at 10 µM: Conc. 10 µM, negative = apparent stimulation, read-out: ACAT (in vitro) % Inhib.; for IC50: rat liver microsomes, read-out: ACAT (in vitro) IC50
T1 construct: Rat liver microsomes are used as the source of ACAT; from tissue; host or cells: rat liver microsomes
T1 sequence (Q7TQM4 1-524): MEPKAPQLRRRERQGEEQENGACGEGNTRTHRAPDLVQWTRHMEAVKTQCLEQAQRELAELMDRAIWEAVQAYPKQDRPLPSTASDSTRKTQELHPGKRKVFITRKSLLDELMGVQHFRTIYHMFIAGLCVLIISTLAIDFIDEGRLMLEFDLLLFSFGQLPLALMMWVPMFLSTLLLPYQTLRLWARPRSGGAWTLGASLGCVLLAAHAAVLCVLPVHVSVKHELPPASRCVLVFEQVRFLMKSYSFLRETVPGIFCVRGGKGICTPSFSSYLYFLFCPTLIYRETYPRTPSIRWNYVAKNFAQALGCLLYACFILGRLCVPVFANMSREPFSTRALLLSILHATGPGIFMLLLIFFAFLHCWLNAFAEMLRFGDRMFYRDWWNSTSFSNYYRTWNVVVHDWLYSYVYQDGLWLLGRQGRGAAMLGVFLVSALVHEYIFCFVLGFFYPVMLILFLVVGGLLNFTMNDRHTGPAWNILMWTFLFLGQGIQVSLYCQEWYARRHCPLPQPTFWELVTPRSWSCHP

Hyperlipidemic Hamster = assay: In Vivo Assay of Hypolipidemic Agents Using the Hyperlipidemic Hamster; conditions: Mesocricetus auratus, po, 168 h, 7 days, percent change versus control, negative = lowering; for change in vivo at 25 mg/kg: 25 mg/kg once daily oral; for change in vivo at 50 mg/kg: 50 mg/kg once daily oral
Summary of the method: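 Test compound in corn oil was given orally once daily for seven days, starting with a 0.5% cholesterol diet, to groups of six hamsters; corn oil alone served as control. Plasma and hepatic lipids were analysed after decapitation. Results are expressed as percent change relative to control.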

[1] = read-out: % Reduction (in vivo) Cholest. Esters
[2] = read-out: % Reduction (in vivo) Serum Cholest.

Structure (SMILES)	inhibition at 10 µM (ACAT)	IC50 (ACAT)	change in vivo at 25 mg/kg (Hyperlipidemic Hamster; [1])	change in vivo at 25 mg/kg (Hyperlipidemic Hamster; [2])	change in vivo at 50 mg/kg (Hyperlipidemic Hamster; [1])	change in vivo at 50 mg/kg (Hyperlipidemic Hamster; [2])
CC[C@@]1(CCCCc2ccccc2)C(=O)N(c2ccc(OC)cc2)[C@H]1c1ccccc1 (relative stereo) [Example 3L]	53%		0%	0%		
CC[C@]1(CCCc2ccccc2)C(=O)N(c2ccc(OC)cc2)[C@H]1c1ccc(OC)cc1 (relative stereo) [Example 3M]	13%				0%	0%
CC[C@@]1(CCCc2ccccc2)C(=O)N(c2ccc(OC)cc2)[C@H]1c1ccc(OC)cc1 (relative stereo) [Example 3O]	-28%				0%	0%
CCCCCCCCCC[C@]1(c2ccccc2)C(=O)N(c2ccc(OC)cc2)[C@H]1c1ccccc1 (relative stereo) [Example 3R]	-8%				0%	0%
CCCCCCCCCC[C@]1(CCCc2ccccc2)C(=O)N(c2ccc(OC)cc2)[C@@H]1c1ccccc1 (relative stereo) [Example 3U]	46%				0%	0%
CCCCCCCCCC[C@]1(CC)C(=O)N(c2c(OC)cc(OC)cc2OC)[C@@H]1c1ccccc1 (relative stereo) [Example 3V]	60%	6.5 µM			0%	0%
CCCCCCCCCC[C@@]1(CC)C(=O)N(c2c(OC)cc(OC)cc2OC)[C@@H]1c1ccccc1 (relative stereo) [Example 3W]	56%				0%	0%
CCCCCCCCCC[C@]1(C)C(=O)N(c2ccc(OC)cc2)[C@H]1c1ccccc1 (relative stereo) [Example 3Y]	-33%				0%	0%
CC[C@@]1(CCCc2ccccc2)C(=O)N(c2ccc(OC)cc2)[C@@H]1/C=C/c1ccccc1 (relative stereo) [Example 3]	56%				0%	0%
COc1ccc([C@@H]2[C@@H](CCCCc3ccccc3)C(=O)N2c2ccc(OC)cc2)cc1 (relative stereo) [Example 5AB]	30%				-72%	-28%
COc1ccc(N2C(=O)[C@H](CCCc3ccccc3)[C@H]2c2cccc(OC)c2)cc1 (relative stereo) [Example 5C]	21%				-24%	-17%
COc1ccc([C@@H]2[C@@H](N(C)CCc3ccccc3)C(=O)N2c2ccccc2)cc1 (relative stereo) [Example 5N]	-23%				-55%	-17%
COc1ccc(N2C(=O)[C@H](CCCc3ccccc3)[C@H]2c2ccc(OC)c(OC)c2)cc1 (relative stereo) [Example 5P]	53%				-33%	-11%
COc1ccc(N2C(=O)[C@H](CCCc3ccccc3)[C@H]2c2ccc3c(c2)OCO3)cc1 (relative stereo) [Example 5Q]	-36%				-19%	0%
COc1ccc(N2C(=O)[C@H](CCCc3ccccc3)[C@H]2c2ccc(C)cc2)cc1 (relative stereo) [Example 5R]	18%				-21%	-20%
CCOc1ccc([C@@H]2[C@@H](CCCc3ccccc3)C(=O)N2c2ccc(OC)cc2)cc1 (relative stereo) [Example 5S]	28%				-98%	-52%
COc1ccc([C@@H]2[C@@H](CCOc3ccccc3)C(=O)N2c2ccc(OC)cc2)cc1 (relative stereo) [Example 5X]	38%				-39%	0%
CC[C@@]1(CCCc2ccccc2)C(=O)N(c2ccc(OC)cc2)[C@H]1CCc1ccccc1 (relative stereo) [Example 6]	59%	5 µM			0%	14%
COc1ccc([C@@H]2N(c3ccc(OC)cc3)C(=O)[C@@]2(c2ccccc2)C2CCCC2)cc1 (relative stereo) [Example 7AD]	-22%				-12%	-12%
COc1ccc([C@@H]2[C@H](OCCc3ccccc3)C(=O)N2c2ccc(OC)cc2)cc1 (relative stereo) [Example 7AE]	-95%				-10%	-17%
COc1ccc([C@@H]2N(c3ccc(OC)cc3)C(=O)[C@]2(Cc2ccccc2)c2ccccc2)cc1 (relative stereo) [Example 7AF]	53%				-15%	23%
COc1ccc([C@@H]2N(c3ccc(OC)cc3)C(=O)[C@@]2(Cc2ccccc2)c2ccccc2)cc1 (relative stereo) [Example 7AH]	-5%				16%	16%
COc1ccc(N2C(=O)[C@@H](CCCc3ccccc3)[C@@H]2c2ccc(CO)cc2)cc1 (relative stereo) [Example 15]	-6%				-46%	-21%
COc1ccc(N2C(=O)[C@@H](CCCc3ccccc3)[C@H]2c2ccc(C=O)cc2)cc1 (relative stereo) [Example 16]	42%				-29%	-25%
COc1ccc(N2C(=O)[C@@H](CCCc3ccccc3)[C@H]2c2ccc([S+](C)[O-])cc2)cc1 (relative stereo) [Example 17]	25%				-52%	-17%

More lines, main results first:

inhibition at 10 µM (ACAT)	IC50 (ACAT)	Structure (SMILES)	change in vivo at 25 mg/kg (Hyperlipidemic Hamster; [1])	change in vivo at 25 mg/kg (Hyperlipidemic Hamster; [2])	change in vivo at 50 mg/kg (Hyperlipidemic Hamster; [1])	change in vivo at 50 mg/kg (Hyperlipidemic Hamster; [2])
-17%		CC[C@@H]1C(=O)N(c2ccc(OC)cc2)[C@H]1c1ccc(N)cc1 (relative stereo) [Example 8A]			0%	0%
-5%		COc1ccc(N2C(=O)[C@@H](CCCc3ccccc3)[C@H]2c2ccc(N)cc2)cc1 (relative stereo) [Example 8B]			-35%	-9%
63%		COc1ccc(N2C(=O)[C@H](CCCc3ccccc3)[C@H]2c2ccc(N)cc2)cc1 (relative stereo) [Example 8C]			0%	0%
8%		COc1ccc(N2C(=O)[C@H](CCCc3ccccc3)[C@H]2c2ccc(O)cc2)cc1 (relative stereo) [Example 8F]	-45%	-20%	-48%	-16%
-37%		COc1ccc([C@@H]2[C@@H](CCCc3ccccc3)C(=O)N2c2ccc(O)cc2)cc1 (relative stereo) [Example 10A]			-58%	-19%
2%		COc1ccc(N2C(=O)[C@@H](CCCc3ccccc3)[C@H]2c2ccc(CO)cc2)cc1 (relative stereo) [Example 15A]			0%	0%
-55%		COc1ccc([C@@H]2[C@H](CCCc3ccccc3)C(=O)N2c2ccc(O)cc2)cc1 (relative stereo) [Example 15B]			-18%	0%
55%		COc1ccc(N2C(=O)[C@H](CCCc3ccccc3)[C@H]2c2ccc(C=O)cc2)cc1 (relative stereo) [Example 16A]			-53%	-30%
38%		COc1ccc(N2C(=O)[C@@H](CCCc3ccccc3)[C@H]2c2ccc(S(C)(=O)=O)cc2)cc1 (relative stereo) [Example 17A]			-25%	-11%
64%		COc1ccc(N2C(=O)[C@@H](CCCc3ccccc3)[C@H]2c2ccc(CN3CCOCC3)cc2)cc1 (relative stereo) [Example 19A]			-34%	-20%
53%		COc1ccc(N2C(=O)[C@H](CCCc3ccccc3)[C@@H]2c2ccc(CN3CCN(C)CC3)cc2)cc1 (relative stereo) [Example 19B]			-31%	-26%
